{
  "source": "patent US12390477B2",
  "about": "“Ganaxolone for use in treating tuberous sclerosis complex and seizure disorders” (Immedica Pharma US Inc., priority 2021, dated 2025)",
  "key": {"CYP2C19": {"target": "CYP2C19 (Homo sapiens, UniProt P33261)", "sequence (P33261 whole entry)": "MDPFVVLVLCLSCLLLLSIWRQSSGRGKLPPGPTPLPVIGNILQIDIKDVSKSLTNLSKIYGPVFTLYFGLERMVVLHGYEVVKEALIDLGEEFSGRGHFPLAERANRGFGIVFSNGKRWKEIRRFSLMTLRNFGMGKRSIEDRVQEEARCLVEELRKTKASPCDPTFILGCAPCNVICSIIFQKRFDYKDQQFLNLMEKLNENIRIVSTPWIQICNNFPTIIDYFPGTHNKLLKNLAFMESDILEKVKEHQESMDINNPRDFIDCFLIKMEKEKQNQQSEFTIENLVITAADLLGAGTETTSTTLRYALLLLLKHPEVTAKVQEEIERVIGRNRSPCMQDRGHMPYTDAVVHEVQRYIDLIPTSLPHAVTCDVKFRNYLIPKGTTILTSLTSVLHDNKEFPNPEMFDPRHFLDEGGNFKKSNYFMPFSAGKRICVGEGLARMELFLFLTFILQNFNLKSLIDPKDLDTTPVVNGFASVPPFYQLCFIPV", "conditions": "cited from earlier work"}, "TSC-associated seizures": {"test_system": "TSC-associated seizures", "test": "Phase 2 open-label trial of adjunctive ganaxolone in TSC-related epilepsy (Part A): seizure frequency", "format": "in vivo, human", "procedure": "A Phase 2 open-label 12 week trial of adjunctive ganavolone treatment (Part A) in tuberous sclerosis complex-related epilepsy followed by long-term treatment (Part B) was conducted. This was a multicenter study conducted at 7 sites in the United States.\nThe primary objectives were to assess preliminary safety and efficacy of ganavolone (GNX) as adjunctive therapy for the treatment of primary seizure types in patients with genetically- or clinically-confirmed TSC-related epilepsy through the end of the 12 week treatment period. The primary seizure types (focal motor seizures without impairment of consciousness or awareness, focal seizures with impairment of consciousness or awareness, focal seizures evolving to bilateral, tonic-clonic convulsive seizures, and generalized motor seizures including tonic-clonic, bilateral tonic, bilateral clonic, or atonic/drop seizures) are identified to be the most common, easily identifiable/countable by a parent/caregiver/legally authorized representative (LAR), and most consequential to the patient's quality of life.\n(§1) This was an open label (OL) proof of concept study of adjunctive GNX treatment in patients with a confirmed clinical diagnosis of TSC and/or a mutation in either the TSC1 or TSC2 gene. The trial consisted of two parts: Part A consisted of a 4-week baseline period followed by a 12-week treatment period (4-week titration and 8-week maintenance). For patients not continuing in the OLE period (Part B), a 2-week taper period followed by a 2-week safety period followed. The main difference between Part A and Part B is the length of treatment, less frequent assessments, and the ability to alter drug doses (both GNX and other antiepileptic drug [AED] treatments which includes initiating and stopping other medications) based on investigator evaluation of the patient's clinical course during Part B. Patients with a seizure frequency reduction rate of ≥35% during the 12-week treatment period in Part A compared to baseline were eligible to continue into Part B (“OLE eligible”).\n(§2) After meeting all eligibility criteria, approximately 30 patients aged 2 to 65 years (inclusive) with TSC-related epilepsy were enrolled to receive GNX for a total of 12 weeks (4 week titration, 8 week maintenance) in addition to their standard anti-seizure medication(s) (ASMs). Patients were titrated to 63 mg/kg/day (maximum 1800 mg/day) over 4 weeks, and then maintained at that dose for another 8 weeks. Patients who were not able to tolerate 63 mg/kg/day (or maximum 1800 mg/day) were eligible to be maintained on a lower dose after discussion with the medical monitor. A minimum dose of 33 mg/kg/day or 900 mg/day was generally required during the maintenance period.\nPatients were required to complete a daily diary to determine GNX's effect on seizures. Days without seizures should also have been noted. Additional clinician and caregiver administered instruments were used to assess the efficacy of GNX in TSC and included: Caregiver Global Impression of Change (CGI-C)—Target Behavior and Clinical Global Impression—Improvement (CGI-I) caregiver and CGI-I clinician.\nGanaxolone was administered in increments of 15 mg/kg/day up to 63 mg/kg/day (maximum 1800 mg/day) given as an oral suspension with food. Patients weighing ≤28 kg were dosed on an mg/kg basis. Patients weighing >28 kg were dosed on a fixed regimen in increments of 450 mg/day up to 1800 mg/day.\nSeizures: All seizure types and number of seizures were to be recorded daily in a diary. Days in which no seizures occur were also to be noted.\nPrimary Efficacy Endpoint: The primary efficacy endpoint was the percent change in 28-day primary seizure frequency through the end of the 12-week treatment period (4-week titration and 8-week maintenance) relative to the 4-week baseline. […]"}, "[1]": {"test": "Phase 2 open-label TSC trial (Part A): safety and tolerability, adverse events", "format": "in vivo, human", "from_the_text": "as §1, §2\n(§3) Pharmacokinetics, Safety and tolerability were assessed.\nIf the next dose was still not tolerated, the patient could drop back to the next lower dose step. A minimum dose of 33 mg/kg/day or 900 mg/day was generally required following the escalation period, during the maintenance period."}, "[2]": {"test": "Phase 2 open-label TSC trial (Part A): ganaxolone plasma/serum concentration", "format": "in vivo, human", "procedure": "as §3"}, "[3]": {"test_system": "major motor seizures in CDD", "test": "Marigold phase 3 trial of ganaxolone in CDKL5 deficiency disorder: seizure frequency", "format": "in vivo, human", "from_the_text": "(§4) The Marigold Study was a phase 3 clinical trial of ganaxolone for the treatment of CDD. The trial met primary endpoint-median 28-day major motor seizure frequency reduction of 32.2 percent compared to 4.9 percent for placebo. […] The most frequent adverse event was somnolence.\n(See, FIG. 10.) These effects are unlikely secondary to age or weight, which were balanced between the two groups."}, "[4]": {"test": "Marigold phase 3 trial of ganaxolone in CDD: safety and tolerability", "format": "in vivo, human", "conditions": "CDD patients", "from_the_text": "as §4"}, "[5]": {"test": "Human pharmacokinetic studies of ganaxolone and CBD", "format": "in vivo", "from_the_text": "Without wishing to be bound by any particular theory, the inventors believe that the results of the clinical study can be explained by a previously unknown and unexpected drug interaction between ganaxolone and CBD. This is unexpected because ganaxolone is metabolized by CYP3A4/5. Landmark et al. Epilepsia 2021 62:857-873. […] Accordingly, it was unexpected that ganaxolone plasma concentrations, tolerability and efficacy would be affected by concomitant CBD. […] Thus, without wishing to be bound by any particular theory or mechanism, the unexpected drug-drug interaction could be a pharmacodynamic interaction."}, "CYP3A4/5": {"test_system": "CYP3A4/5", "conditions": "cited from earlier work"}, "[6]": {"test_system": "UGT1A9, UGT2B7, CYP1A2, CYP2B6, CYP2C8, CYP2C9 or CYP2C19", "conditions": "cited from earlier work"}},
  "data": [
    {"smiles": "C=C(C)[C@@H]1CCC(C)=C[C@H]1c1c(O)cc(CCCCC)cc1O", "note": "[EPIDIOLEX, cannabidiol]", "values": [
      {"measurement": "increase in plasma concentration of N-desmethylclobazam", "setting": "CYP2C19; coadministration with clobazam (a CYP2C19 substrate)", "result": 3, "unit": "fold"},
      {"measurement": "effect on clobazam levels", "setting": "CYP2C19; coadministration with clobazam", "result": "no effect"}
    ]},
    {"smiles": "CC(=O)[C@H]1CC[C@H]2[C@@H]3CC[C@H]4C[C@](C)(O)CC[C@]4(C)[C@H]3CC[C@]12C", "note": "[ganaxolone, 3α-hydroxy-3β-methyl-5α-pregnan-20-one]", "values": [
      {"measurement": "median reduction in TSC-associated seizure frequency", "setting": "TSC-associated seizures; 23 enrolled patients, 12-week treatment vs 4-week baseline", "result": 16.6, "unit": "%"},
      {"measurement": "patients achieving ≥50% reduction in TSC-associated seizure frequency", "setting": "TSC-associated seizures; all enrolled patients (n=23)", "result": 30.4, "unit": "%"},
      {"measurement": "efficacy in patients receiving concomitant EPIDIOLEX (CBD) at 10 mg/kg/day or less", "setting": "TSC-associated seizures; concomitant CBD 10 mg/kg/day or less", "result": "robust efficacy"},
      {"measurement": "suppression of seizure (efficacy) with concomitant CBD above 10 mg/kg vs no CBD or CBD at or below 10 mg/kg", "setting": "TSC-associated seizures; concomitant CBD above 10 mg/kg", "result": "lower suppression of seizure"},
      {"measurement": "fraction of patients with robust reduction in TSC-associated seizures", "setting": "TSC-associated seizures; including those on concomitant cannabidiol and everolimus", "result": "⅓"},
      {"measurement": "median percent reduction in focal seizure frequencies", "setting": "TSC-associated seizures; n=19", "result": 25.2, "unit": "%"},
      {"measurement": "patients achieving ≥50% reduction in TSC-associated seizure frequency", "setting": "TSC-associated seizures; patients that received concomitant cannabidiol (n=12)", "result": 25, "unit": "%"},
      {"measurement": "patients achieving ≥50% reduction in TSC-associated seizure frequency", "setting": "TSC-associated seizures; patients that received concomitant everolimus (n=11)", "result": 36.4, "unit": "%"},
      {"measurement": "median percent reduction in TSC-associated seizures, no concomitant cannabidiol vs concomitant cannabidiol", "setting": "TSC-associated seizures; patients without concomitant cannabidiol (n=11) compared with patients on cannabidiol", "result": "greater median percent reduction"},
      {"measurement": "patients that discontinued Part A, number", "setting": "[1]; 23 enrolled", "result": 6, "unit": "patients"},
      {"measurement": "patients that discontinued Part A, percent", "setting": "[1]; 23 enrolled", "result": 26.1, "unit": "%"},
      {"measurement": "fatigue, number of patients reporting", "setting": "[1]; 23 enrolled TSC patients", "result": 3, "unit": "patients"},
      {"measurement": "fatigue, percent of patients reporting", "setting": "[1]; 23 enrolled TSC patients", "result": 13.0, "unit": "%"},
      {"measurement": "overall tolerability", "setting": "[1]; 23 enrolled TSC patients", "result": "generally well-tolerated"},
      {"measurement": "patients with seizure assessed by the principal investigator as treatment related", "setting": "[1]; 23 enrolled TSC patients", "result": "One"},
      {"measurement": "sedation, number of patients reporting", "setting": "[1]; 23 enrolled TSC patients", "result": 3, "unit": "patients"},
      {"measurement": "sedation, percent of patients reporting", "setting": "[1]; 23 enrolled TSC patients", "result": 13.0, "unit": "%"},
      {"measurement": "somnolence, number of patients reporting", "setting": "[1]; 23 enrolled TSC patients", "result": 10, "unit": "patients"},
      {"measurement": "somnolence, percent of patients reporting", "setting": "[1]; 23 enrolled TSC patients", "result": 43.5, "unit": "%"},
      {"measurement": "somnolence-related adverse events (somnolence, sedation, fatigue and lethargy), number of patients", "setting": "[1]; 23 enrolled TSC patients", "result": 17, "unit": "patients"},
      {"measurement": "ganaxolone tolerability issues with concomitant CBD above 10 mg/kg vs no CBD or CBD at or below 10 mg/kg", "setting": "[1]; concomitant CBD above 10 mg/kg", "result": "greater ganaxolone tolerability issues"},
      {"measurement": "patients on concomitant cannabidiol experiencing somnolence-related adverse events", "setting": "[1]; concomitant cannabidiol (n=12)", "result": "All patients"},
      {"measurement": "patients that discontinued Part A because of an adverse event", "setting": "[1]; of the patients that discontinued", "result": 4},
      {"measurement": "mean ganaxolone serum concentration in patients with somnolence-related adverse events relative to patients without", "setting": "[2]; FIG. 3", "result": "higher"},
      {"measurement": "mean ganaxolone plasma concentration with concomitant cannabidiol vs without", "setting": "[2]; FIG. 4", "result": "higher"},
      {"measurement": "ganaxolone plasma concentration in relation to concomitant cannabidiol dose", "setting": "[2]; FIG. 5, n=11", "result": "higher doses of cannabidiol were associated with higher plasma concentrations of ganaxolone"},
      {"measurement": "median 28-day major motor seizure frequency reduction", "setting": "[3]; CDD patients, ganaxolone arm", "result": 32.2, "unit": "%"},
      {"measurement": "efficacy in patients who experienced somnolence-related adverse events vs those who did not", "setting": "[3]; ganaxolone treatment group (N=49), FIG. 10", "result": "reduced efficacy"},
      {"measurement": "discontinuation rate in the active treatment arm", "setting": "[4]", "result": "less than 5%"},
      {"measurement": "most frequent adverse event", "setting": "[4]", "result": "somnolence"},
      {"measurement": "overall tolerability", "setting": "[4]", "result": "generally well tolerated"},
      {"measurement": "pharmacokinetic drug-drug interaction of ganaxolone and CBD", "setting": "[5]", "result": "did not provide evidence of a pharmacokinetic drug-drug interaction"},
      {"measurement": "metabolizing enzyme", "setting": "CYP3A4/5", "result": "CYP3A4/5"},
      {"measurement": "metabolism by enzymes implicated in CBD interactions with other drugs", "setting": "[6]", "result": "not significantly metabolized"}
    ]}
  ]
}
